Where a name gives a salt, the structure may show the parent alone. Read-outs that look alike come from different tables or passages of the source.
Tests used:
[1] = target: HIV-1 RT (Human immunodeficiency virus type 1 group M subtype B, UniProt P03366); experiment: HIV Reverse Transcriptase Assay: Inhibitor IC50 Determination; assay type: biochemical
Experimental: HIV Reverse Transcriptase Assay: Inhibitor IC50 Determination
HIV-1 RT assay was carried out in 96-well Millipore MultiScreen MADVNOB50 plates using purified recombinant enzyme and a poly(rA)/oligo(dT)16 template-primer in a total volume of 50 μL. The assay constituents were 50 mM Tris/HCl, 50 mM NaCl, 1 mM EDTA, 6 mM MgCl2, 5 μM dTTP, 0.15 μCi [^3H] dTTP, 5 μg/ml poly (rA) pre annealed to 2.5 μg/ml oligo (dT)16 and a range of inhibitor concentrations in a final concentration of 10% DMSO. Reactions were initiated by adding 4 nM HIV-1 RT and after incubation at 37° C. for 30 min, they were stopped by the addition of 50 μl ice cold 20% TCA and allowed to precipitate at 4° C. for 30 min. The precipitates were collected by applying vacuum to the plate and sequentially washing with 3×200 μl of 10% TCA and 2×200 μl 70% ethanol. Finally, the plates were dried and radioactivity counted in a Packard TopCounter after the addition of 25 μl scintillation fluid per well. IC50's were calculated by plotting % inhibition versus log10 inhibitor concentrations.

[2] = test system: HIV; experiment: Anti-viral Assay (method of Pauwels et al.); assay type: cell-based; conditions: Human immunodeficiency virus 1
Experimental: Anti-viral assays were carried out by the method described by R. E. Pauwels et al. J. Virol. Methods 1988 20(4):309–322.

[3] = purified recombinant enzyme, poly(rA)/oligo(dT)16 template-primer, 37° C. 30 min, read-out: RT inhibition

## CCC(=O)NS(=O)(=O)c1ccc(NC(=O)Cc2ccc(Br)c(Oc3cc(Cl)cc(C#N)c3)c2F)c(Cl)c1 [Compound I-63, 2-[4-Bromo-3-(3-chloro-5-cyano-phenoxy)-2-fluoro-phenyl]-N-(2-chloro-4-propionylsulfamoyl-phenyl)-acetamide; sodium salt]
[1]
  IC50: 5.8 nM

## Cc1ccc(CC(=O)Nc2ccc(S(N)(=O)=O)cc2Cl)c(F)c1Oc1cc(Cl)cc(C#N)c1 [Compound I-83, 2-[3-(3-Chloro-5-cyano-phenoxy)-2-fluoro-4-methyl-phenyl]-N-(2-chloro-4-sulfamoyl-phenyl)-acetamide]
[1]; [3]
  IC50: 8.1 nM
[2]
  EC50: 0.9 nM
other
  melting point: 228.9 to 230.6 °C

## Cc1ccc(CC(=O)Nc2ccc(S(N)(=O)=O)cc2Cl)c(F)c1Oc1cc(C#N)cc(C(F)F)c1 [Compound I-84, N-(2-Chloro-4-sulfamoyl-phenyl)-2-[3-(3-cyano-5-difluoromethyl-phenoxy)-2-fluoro-4-methyl-phenyl]-acetamide]
[1]; [3]
  IC50: 14 nM
[2]
  EC50: 0.4 nM
other
  melting point: 218 to 218.7 °C

## N#Cc1cc(Cl)cc(Oc2c(Br)ccc(CC(=O)Nc3ccc(S(N)(=O)=O)cc3Cl)c2F)c1 [Compound I-109, 2-[4-Bromo-3-(3-chloro-5-cyano-phenoxy)-2-fluoro-phenyl]-N-(2-chloro-4-sulfamoyl-phenyl)-acetamide]
[1]
  IC50: 13.6 nM
[2]
  EC50: 1.3 nM
other
  melting point: 165 to 166.6 °C

## CC(C)[C@H](N)C(=O)NS(=O)(=O)c1ccc(NC(=O)Cc2ccc(Cl)c(Oc3cc(Cl)cc(C#N)c3)c2F)c(Cl)c1.[Na] [Compound I-127, N-[4-((S)-2-Amino-3-methyl-butyrylsulfamoyl)-2-chloro-phenyl]-2-[4-chloro-3-(3-chloro-5-cyano-phenoxy)-2-fluoro-phenyl]-acetamide; sodium salt]
[1]
  IC50: 5.9 nM
other
  melting point: 219.4 to 220.2 °C

## CCCC(=O)NS(=O)(=O)c1ccc(NC(=O)Cc2ccc(Cl)c(Oc3cc(Cl)cc(C#N)c3)c2F)c(Cl)c1.[Na] [Compound I-138, N-(4-Butyrylsulfamoyl-2-chloro-phenyl)-2-[4-chloro-3-(3-chloro-5-cyano-phenoxy)-2-fluoro-phenyl]-acetamide; sodium salt]
[1]
  IC50: 4.5 nM
other
  melting point: 157.2 to 157.9 °C

## CCc1ccc(CC(=O)Nc2ccc(S(N)(=O)=O)cc2Cl)cc1Oc1cc(C#N)cc(C(F)F)c1 [Compound I-140, N-(2-Chloro-4-sulfamoyl-phenyl)-2-[3-(3-cyano-5-difluoromethyl-phenoxy)-4-ethyl-phenyl]-acetamide]
[1]; [3]
  IC50: 21 nM
[2]
  EC50: 0.4 nM
other
  melting point: 191.8 to 192.5 °C

## N#Cc1cc(Oc2c(Br)ccc(CC(=O)Nc3ccc(S(N)(=O)=O)cc3Cl)c2F)cc(C(F)F)c1 [Compound I-165, 2-[4-Bromo-3-(3-cyano-5-difluoromethyl-phenoxy)-2-fluoro-phenyl]-N-(2-chloro-4-sulfamoyl-phenyl)-acetamide]
[1]; [3]
  IC50: 21 nM
[2]
  EC50: 0.4 nM
other
  melting point: 205.4 to 207.7 °C

## Cc1cc(S(N)(=O)=O)ccc1NC(=O)Cc1ccc(Br)c(Oc2cc(C#N)cc(C(F)F)c2)c1F [Compound I-169, 2-[4-Bromo-3-(3-cyano-5-difluoromethyl-phenoxy)-2-fluoro-phenyl]-N-(2-methyl-4-sulfamoyl-phenyl)-acetamide]
[1]; [3]
  IC50: 27 nM
[2]
  EC50: 0.4 nM
other
  melting point: 223.9 to 225 °C

## CCc1ccc(CC(=O)Nc2ccc(S(N)(=O)=O)cc2Cl)c(F)c1Oc1cc(C#N)cc(C(F)F)c1 [Compound I-179, N-(2-Chloro-4-sulfamoyl-phenyl)-2-[3-(3-cyano-5-difluoromethyl-phenoxy)-4-ethyl-2-fluoro-phenyl]-acetamide]
[1]; [3]
  IC50: 7.4 nM
[2]
  EC50: 0.4 nM
other
  melting point: 239.6 to 240.7 °C

## CCc1ccc(CC(=O)Nc2ccc(S(N)(=O)=O)cc2C)c(F)c1Oc1cc(C#N)cc(C(F)F)c1 [Compound I-180, 2-[3-(3-Cyano-5-difluoromethyl-phenoxy)-4-ethyl-2-fluoro-phenyl]-N-(2-methyl-4-sulfamoyl-phenyl)-acetamide]
[1]; [3]
  IC50: 9.1 nM
other
  melting point: 237.6 to 238.4 °C
